# Source: ChEMBL document CHEMBL3813672, “Discovery of anti-cancer activity for benzo[1,2,4]triazin-7-ones: Very strong correlation to pleurotin and thioredoxin reductase inhibition” (Bioorg Med Chem, 2016)
# pIC50: −log10 of the molar value.
# Legend:
# [1] = Growth inhibition of human OVCAR4 cells assessed as cell growth at 10 uM incubated for 48 hrs by sulforhodamine B assay relative to control; type: functional; conditions: OVCAR-4, 48 h, read-out: Activity
# U-251 = test: Growth inhibition of human U251 cells assessed as cell growth at 10 uM incubated for 48 hrs by sulforhodamine B assay relative to control; type: functional; conditions: U-251, 48 h, read-out: Activity
# HT-29 = test: Growth inhibition of human HT-29 cells assessed as cell growth at 10 uM incubated for 48 hrs by sulforhodamine B assay relative to control; type: functional; conditions: HT-29, 48 h, read-out: Activity
# A549 [2] = test: Growth inhibition of human A549/ATCC cells assessed as cell growth at 10 uM incubated for 48 hrs by sulforhodamine B assay relative to control; type: functional; conditions: A549, 48 h, read-out: Activity
# CCRF-CEM = test: Growth inhibition of human CCRF-CEM cells assessed as cell growth at 10 uM incubated for 48 hrs by sulforhodamine B assay relative to control; type: functional; conditions: read-out: Activity
# [3] = Growth inhibition of human HL-60(TB) cells assessed as cell growth at 10 uM incubated for 48 hrs by sulforhodamine B assay relative to control; type: functional; conditions: HL-60, 48 h, read-out: Activity
# SK-MEL-28 = test: Growth inhibition of human SK-MEL-28 cells assessed as cell growth at 10 uM incubated for 48 hrs by sulforhodamine B assay relative to control; type: functional; conditions: SK-MEL-28, 48 h, read-out: Activity
# SR = test: Growth inhibition of human SR cells assessed as cell growth at 10 uM incubated for 48 hrs by sulforhodamine B assay relative to control; type: functional; conditions: read-out: Activity
# [4] = Growth inhibition of human PC3 cells assessed as cell growth at 10 uM incubated for 48 hrs by sulforhodamine B assay relative to control; type: functional; conditions: PC-3, 48 h, read-out: Activity
# M14 [5] = test: Growth inhibition of human M14 cells assessed as cell growth at 10 uM incubated for 48 hrs by sulforhodamine B assay relative to control; type: functional; conditions: M14, 48 h, read-out: Activity
# ACHN = test: Growth inhibition of human ACHN cells assessed as cell growth at 10 uM incubated for 48 hrs by sulforhodamine B assay relative to control; type: functional; conditions: read-out: Activity
# MCF7 [6] = test: Cytotoxicity against human MCF7 cells assessed as reduction in cell viability after 72 hrs by MTT assay; type: functional, cell-based; conditions: MCF7, 72 h
# MDA-MB-468 = test: Growth inhibition of human MDA-MB-468 cells assessed as cell growth at 10 uM incubated for 48 hrs by sulforhodamine B assay relative to control; type: functional; conditions: MDA-MB-468, 48 h, read-out: Activity
# [7] = Growth inhibition of human MOLT4 cells assessed as cell growth at 10 uM incubated for 48 hrs by sulforhodamine B assay relative to control; type: functional; conditions: MOLT-4, 48 h, read-out: Activity
# NCI-H322M = test: Growth inhibition of human NCI-H322M cells assessed as cell growth at 10 uM incubated for 48 hrs by sulforhodamine B assay relative to control; type: functional; conditions: read-out: Activity
# 786-0 = test: Growth inhibition of human 786-0 cells assessed as cell growth at 10 uM incubated for 48 hrs by sulforhodamine B assay relative to control; type: functional; conditions: 786-0, 48 h, read-out: Activity
# [8] = Cytotoxicity against human DU145 cells assessed as reduction in cell viability after 72 hrs by MTT assay; type: functional, cell-based; conditions: DU-145, 72 h
# NCI-H23 = test: Growth inhibition of human NCI-H23 cells assessed as cell growth at 10 uM incubated for 48 hrs by sulforhodamine B assay relative to control; type: functional; conditions: NCI-H23, 48 h, read-out: Activity
# [9] = Growth inhibition of human SKOV3 cells assessed as cell growth at 10 uM incubated for 48 hrs by sulforhodamine B assay relative to control; type: functional; conditions: SK-OV-3, 48 h, read-out: Activity
# MCF7 [10] = test: Growth inhibition of human MCF7 cells assessed as cell growth at 10 uM incubated for 48 hrs by sulforhodamine B assay relative to control; type: functional; conditions: MCF7, 48 h, read-out: Activity
# NCI/ADR-RES = test: Growth inhibition of human NCI/ADR-RES cells assessed as cell growth at 10 uM incubated for 48 hrs by sulforhodamine B assay relative to control; type: functional; conditions: read-out: Activity
# [11] = Growth inhibition of human SNB75 cells assessed as cell growth at 10 uM incubated for 48 hrs by sulforhodamine B assay relative to control; type: functional; conditions: SNB-75, 48 h, read-out: Activity
# [12] = Growth inhibition of human UACC257 cells assessed as cell growth at 10 uM incubated for 48 hrs by sulforhodamine B assay relative to control; type: functional; conditions: UACC-257, 48 h, read-out: Activity
# [13] = Growth inhibition of human RXF393 cells assessed as cell growth at 10 uM incubated for 48 hrs by sulforhodamine B assay relative to control; type: functional; conditions: RXF 393, 48 h, read-out: Activity
# [14] = Growth inhibition of human RPMI8226 cells assessed as cell growth at 10 uM incubated for 48 hrs by sulforhodamine B assay relative to control; type: functional; conditions: RPMI-8226, 48 h, read-out: Activity
# [15] = Growth inhibition of human TK10 cells assessed as cell growth at 10 uM incubated for 48 hrs by sulforhodamine B assay relative to control; type: functional; conditions: TK-10, 48 h, read-out: Activity
# [16] = Growth inhibition of human SNB19 cells assessed as cell growth at 10 uM incubated for 48 hrs by sulforhodamine B assay relative to control; type: functional; conditions: SNB-19, 48 h, read-out: Activity
# [17] = Growth inhibition of human BT549 cells assessed as cell growth at 10 uM incubated for 48 hrs by sulforhodamine B assay relative to control; type: functional; conditions: BT-549, 48 h, read-out: Activity
# [18] = Growth inhibition of human DU145 cells assessed as cell growth at 10 uM incubated for 48 hrs by sulforhodamine B assay relative to control; type: functional; conditions: DU-145, 48 h, read-out: Activity
# NCI-H522 = test: Growth inhibition of human NCI-H522 cells assessed as cell growth at 10 uM incubated for 48 hrs by sulforhodamine B assay relative to control; type: functional; conditions: NCI-H522, 48 h, read-out: Activity
# M14 [19] = test: Growth inhibition of human M14 cells incubated for 48 hrs by sulforhodamine B assay; type: functional; conditions: M14, 48 h
# A549 [20] = test: Growth inhibition of human A549/ATCC cells incubated for 48 hrs by sulforhodamine B assay; type: functional; conditions: A549, 48 h
# [21] = Growth inhibition of human SW620 cells incubated for 48 hrs by sulforhodamine B assay; type: functional; conditions: SW-620, 48 h
# [22] = Growth inhibition of human RXF393 cells incubated for 48 hrs by sulforhodamine B assay; type: functional; conditions: RXF 393, 48 h
# [23] = Growth inhibition of human RPMI8226 cells incubated for 48 hrs by sulforhodamine B assay; type: functional; conditions: RPMI-8226, 48 h
# [24] = read-out: pLC50 (the source's name) (converted)
structure (smiles),measurement,setting,value
O=c1ccc2nc(-c3ccccc3)nn(-c3ccccc3)c-2c1,growth at 10 µM,[1],-40.6%
same,growth at 10 µM,U-251,66.2%
same,growth at 10 µM,HT-29,-53.5%
same,growth at 10 µM,A549 [2],73.6%
same,growth at 10 µM,CCRF-CEM,-16.4%
same,growth at 10 µM,[3],-45.5%
same,growth at 10 µM,SK-MEL-28,26.4%
same,growth at 10 µM,SR,-20.2%
same,growth at 10 µM,[4],43.5%
same,growth at 10 µM,M14 [5],51.2%
same,growth at 10 µM,ACHN,-96%
same,pIC50,MCF7 [6],6.09
same,growth at 10 µM,MDA-MB-468,-61.6%
same,growth at 10 µM,[7],-37.6%
same,growth at 10 µM,NCI-H322M,66.2%
same,growth at 10 µM,786-0,48.6%
same,pIC50,[8],6.64
same,growth at 10 µM,NCI-H23,54.4%
same,growth at 10 µM,[9],59.1%
same,growth at 10 µM,MCF7 [10],-66.7%
same,growth at 10 µM,NCI/ADR-RES,96.2%
same,growth at 10 µM,[11],93.2%
same,growth at 10 µM,[12],-97.3%
same,growth at 10 µM,[13],-92.8%
same,growth at 10 µM,[14],-6.53%
same,growth at 10 µM,[15],-95.9%
same,growth at 10 µM,[16],76%
same,growth at 10 µM,[17],90.2%
same,growth at 10 µM,[18],-95.5%
same,growth at 10 µM,NCI-H522,-90.5%
O=c1ccc2nc(C(F)(F)F)nn(-c3ccccc3)c-2c1,GI50,M14 [19],5.75 µM
same,CC50,M14 [19]; [24],45.7 µM
same,TGI,M14 [19]; read-out: pTGI (converted),19.1 µM
same,growth at 10 µM,[1],79.8%
same,GI50,A549 [20],19.5 µM
same,CC50,A549 [20]; [24],79.4 µM
same,TGI,A549 [20]; read-out: pTGI (converted),38.9 µM
same,growth at 10 µM,U-251,69.7%
same,growth at 10 µM,HT-29,-64.3%
same,growth at 10 µM,A549 [2],93%
same,growth at 10 µM,CCRF-CEM,-0.27%
same,growth at 10 µM,[3],-36.6%
same,growth at 10 µM,SK-MEL-28,35.7%
same,growth at 10 µM,SR,-11.3%
same,growth at 10 µM,[4],84.5%
same,growth at 10 µM,M14 [5],62.1%
same,growth at 10 µM,ACHN,-89%
same,pIC50,MCF7 [6],6.22
same,growth at 10 µM,MDA-MB-468,-73.5%
same,growth at 10 µM,[7],-20.5%
same,growth at 10 µM,NCI-H322M,99.8%
same,growth at 10 µM,786-0,22.2%
same,GI50,[21],1.74 µM
same,CC50,[21]; [24],7.94 µM
same,TGI,[21]; read-out: pTGI (converted),3.72 µM
same,pIC50,[8],6.07
same,growth at 10 µM,NCI-H23,67.7%
same,growth at 10 µM,[9],79.3%
same,growth at 10 µM,MCF7 [10],-49.3%
same,growth at 10 µM,NCI/ADR-RES,84%
same,growth at 10 µM,[11],86.5%
same,GI50,[22],1.45 µM
same,CC50,[22]; [24],5.37 µM
same,TGI,[22]; read-out: pTGI (converted),2.82 µM
same,growth at 10 µM,[12],35.6%
same,growth at 10 µM,[13],-20.4%
same,growth at 10 µM,[14],45.6%
same,growth at 10 µM,[15],-95%
same,growth at 10 µM,[16],93.5%
same,GI50,[23],4.79 µM
same,CC50,[23]; [24],> 100 µM
same,TGI,[23]; read-out: pTGI (converted),77.6 µM
same,growth at 10 µM,[17],69.2%
same,growth at 10 µM,[18],40.5%
same,growth at 10 µM,NCI-H522,-56%
